# Measurements reported in patent US20140113876A1, “BIOMARKERS FOR ASSESSING TREATMENT OF SIALIC ACID DEFICIENCY DISEASES AND CONDITIONS” (ULTRAGENYX PHARMACEUTICAL INC., priority 2012, published 2014).
# Test system: HIBM patients
# Test: Phase 2 clinical trial: change in serum biomarker levels between week 0 and week 24 per dosage group (Human Discovery MAP250+ v2.0 immunoassay)
# Format: in vivo
# Experimental: Forty-seven (47) HIBM patient serum samples collected at week 24 from phase 2 study were tested using the Human Discovery MAP250+ v2.0 quantitative immunoassay system developed by Myriad RBM. The results were compared to the serum samples of the same 47 HIBM patients collected at week 0 (baseline) which were conducted earlier with the same immunoassay system.
# Patients were unblinded and the results were organized into the 3 assigned dosage groups, placebo (n=14), 3 g/day (n=17) and 6 g/day (n=14). The major focus of the analysis was 1) to assess changes (delta, A) in levels of analytes between baseline and week 24 in each dosage group, 2) whether the changes correlate to dosage levels.
# Analytes were excluded from analysis if […] of the HIBM patient samples were below least detectable dose (LDD). Within each dosage group, individual values with >5× difference to the mean of the dosage group were considered as outliers and thus removed from analysis.
# [1] = placebo, 3 g/day, 6 g/day, week 0 to week 24, FIG. 4
structure (smiles),measurement,setting,value
"CC(=O)N[C@H]1[C@H]([C@H](O)[C@H](O)CO)OC(O)(C(=O)O)C[C@@H]1O (some centres unmarked) [Sialic Acid, 5-N-acetylneuraminic acid]","serum level of LAP TGF-b1, change towards normal level compared to placebo","6 g/day dosage group, week 0 to week 24, FIG. 2",declined at a faster rate
same,"serum level of NCAM, change towards normal level compared to placebo","6 g/day dosage group, week 0 to week 24, FIG. 3",increased at a faster rate
same,change in the levels of the eleven analytes of Table 14 compared to the placebo group,"6 g/day group, week 24",more favorable change
same,"slope of delta from placebo to higher dosage group, analytes with baseline levels higher than normal controls (PAI-1, LGL, myoglobin, ENA-78, TGfb1, M-CSF1, MMP-9, CgA)",[1],downward trend
same,"slope of delta from placebo to higher dosage group, analytes with baseline levels lower than normal controls (NCAM, ErbB3)",[1],upward trend
